The values that follow come from patent US10285985B2, “Pharmaceutical composition for treatment or prevention of neurodegenerative diseases” (NATIONAL UNIVERSITY CORPORATION OKAYAMA UNIVERSITY, priority 2015, dated 2019).

Several values for one entry are separate records, joined by “and”; a condition that tells them apart may be missing. Identical values can stand only once. Like-named read-outs stand apart in the source and are kept apart here.

In series [1] the test system is Parkinson's disease model rats. Briefly: Apomorphine-induced rotation in Parkinson's disease model rats (6-OHDA). The series is classed as in vivo, SD rat. Particulars: individual rats, Day 12, 0.015% w/w in feed, apomorphine 1 mg/kg i.p., 3 minutes. The protocol: A 8-week old male SD rat under isoflurane anesthesia was skin-incised on the head and then a connective tissue was dissected and removed. Then, the tissue was fixed on a brain stereotactic fixture, bregma and lambda coordinates were measured, a microinjection cannula was inserted at four points of administration coordinates AP (+1.3, +0.4, −0.4, −1.3 mm) and DV (−5.0 mm) at the depth of 5.0 mm from the brain surface, and 2 μL of a 3.5 mg/mL solution of 6-OHDA (6-hydroxydopamine) in a saline with 0.02% ascorbic acid as a solvent was infused at a rate of 1 μL/min. Similar surgical procedure was conducted for a sham group and saline with ascorbic acid alone was infused. Five minutes after infusion, the glass pipette was kept to be inserted for diffusing the solution. […] A rat with Parkinson's disease rotates to the left after apomorphine administration. An individual which rotated seven or more times in one minute after the initiation of the rotation was used as a Parkinson's disease model.
The rats were allowed to freely access to MF feed containing a 0.015% w/w RXR partial agonist. After 6 and 12 days, to the animal was intraperitoneally administered a 1 mg/mL solution of apomorphine in saline at 1 mg/kg, and the rotatory movement number for 3 minutes immediately after the administration was recorded.

For series [2] the following is noted: mice, oral 30 mg/kg/day for one week; cited from earlier work.
Series [3] in a line: Brain-migration ability: plasma and cerebral concentration by HPLC. The series is classed as in vivo, male ICR mice. The conditions noted are these: for concentration at 1 h: mouse, one hour after 30 mg/kg single-dose administration, male ICR mice, ave ± SEM. On the procedure:
A compound was administered at a dose of 30 mg/kg mouse body weight. A compound to be administered was prepared by dissolving it in a 1% final concentration of ethanol and suspending the solution in a 0.5% carboxymethyl cellulose (CMC) solution. Animals subjected to administration were male ICR mice (6 week old), and they were fasted from 17 o'clock the day before.
The collected blood was put in a heparinized tube, mixed with inversion and then centrifuged (600 g) for 5 minutes to obtain plasma. To 100 μL of the plasma were added 100 μL of an ammonium acetate buffer solution and 1 mL of ethyl acetate, and the mixture was stirred by a vortex mixer for 30 seconds and then left at room temperature for 10 minutes. Then, the mixture was centrifuged 30 seconds and 800 μL of the supernatant was concentrated by a centrifugal evaporator. To the concentrate was added 100 μL of an HPLC eluent to prepare an HPLC sample.
Under ether anesthesia, the brain was removed from a mouse after administrating a drug, and about 100 mg of the brain was weighed into a 2 mL Eppendorf tube. After adding 1000 μL of methanol per 100 mg of the brain, the mixture was homogenized. After the homogenization, the homogenate was centrifuged at 10,000 g at 10 to 15° C. for 10 minutes. Then, in a separate 1.5 mL Eppendorf tube, 700 μL of the supernatant […] was dispensed and concentrated to dryness by a centrifugal evaporator. To the concentrate was added 70 μL of the HPLC eluent, to give a solution (10× concentrate).
A 30 μM solution of the drug in methanol was prepared and diluted with the HPLC eluent (5 mM AcONH4, pH5, MeOH) to 10, 3, 1 and 0.3 μM. Using these, a calibration curve was formed. The plasma and the […] samples were subjected to measurement and a measured value was converted to a concentration.

Series [4] deals with senescence-accelerated mouse (SAMP8). Put plainly: Y-maze test in senescence-accelerated mouse (SAMP8). Format: in vivo. The conditions noted are these: SAMP8 mice, 0.015% in feed; FIG. 5A.
Procedure: In this test, the mice used in the step-through test were used as they were.
After the step-through test, a Y-maze for a mouse (arm length: 40 cm) was used and mice were allowed to freely move for 8 minutes. In a Y-shaped system, a near-side arm, a left-back arm and a right-back arm are A, B, and C, respectively, and the number of entry into each arm was recorded (here, “entry” is defined that both hind paws of a mouse enter an arm, and entry of forepaws only is defined as “not enter”). This is called as a Y-maze.
Series [5] shares this test system. Put plainly: Blood data and organ weight in senescence-accelerated mouse (SAMP8) after 9 weeks of drug feed. Particulars: drug feed for 9 weeks, FIG. 7B, C. Format: in vivo. The protocol:
After MRI imaging, the mice used in the above test were subjected to blood collection and then dissected, and blood data and the weight of each organ were recorded. Autopsy was conducted for the mice fed with MF feed containing a drug for 9 weeks. The animals were not fasted the day before the autopsy.

Series [6] relates to multiple sclerosis model mice (EAE mice). Put plainly: Multiple sclerosis model mice (EAE mice), clinical score. Format: in vivo, C57BL6/J mice. Particulars: 0.015 w/w % in feed, vs vehicle group, FIG. 8.

Take `CN1CCc2cccc3c2[C@H]1Cc1ccc(O)c(O)c1-3` [Apomorphine, apomorphine]: in series [1], the “rotatory movement number, Left” value was 11 and 19 and 9 and 4 and 16; the “rotatory movement number, Right” value was determined as 0.

For `CCN(c1ccc(OCC(C)C)c(C(C)C)c1)c1ccc(C(=O)O)cn1` [NEt-4IB], in series [1] (listed as NEt-41B), the “rotatory movement number, Left” value is 53 and 18 and 6 and 0 and 32; the “rotatory movement number, Right” value is 0 (4×) and 75. In series [2], the “liver weight vs vehicle group” value was “not a difference”, the “tendency to weight gain (body weight change over a week)” value is on record as “not observed” and the “triglyceride level vs vehicle group” value is on record as “not a difference”.

On to `Cc1cc2c(cc1-n1nnc3cc(C(=O)O)ccc31)C(C)(C)CCC2(C)C` [CBt-PMN], for which the “migration to the brain compared with bexarotene” value in series [3] (30 mg/kg, mice, one hour) was “migrates more smoothly to the brain than bexarotene”. Also, the concentration at 1 h worked out at 11.4 ± 3.7 µM in series [3] (brain, read-out: Brain concentration) and 15.8 ± 6 µM in series [3] (plasma, read-out: Plasma concentration).

Take `C=C(c1ccc(C(=O)O)cc1)c1cc2c(cc1C)C(C)(C)CCC2(C)C` [bexarotene]: in series [4], the “effect on SAMP8 hyperactivity (number of entry in the Y-maze arm)” value is recorded as “no effects”. Also, in series [5] (SAMP8 mice), the blood triglyceride result is on record as “increase” and the “enlargement of the liver” value is “observed”. In series [5] (SAMR1 mice), the blood triglyceride entry is listed as “increase” and the “enlargement of the liver” value was “observed”. Moreover, the “clinical score / amelioration of pathological model” value in series [6] is on record as “did not ameliorate”.
